In patent US9695155B2, “Herbicidal substituted pyrimidinyloxy benzene compounds” (E. I. DU PONT DE NEMOURS AND COMPANY, priority 2013, dated 2017):

Columns and labels:
sedge, umbrella = test: Test B flooded paddy test; type: in vivo, Cyperus difformis; conditions: Flood, 250 g ai/ha, 0 to 100 scale where 0 is no effect and 100 is complete control
Procedure, shortened: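 Seedlings are raised to two leaves, flooded to a depth of 3 cm and dosed by adding the compound to the floodwater. Water level is kept constant, and plants are scored visually versus controls 13–15 days later (0 = no effect, 100 = complete control).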

giant foxtail [1] = test: Test C postemergence; type: in vivo, Setaria faberii
Procedure, shortened: (§1)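 Seeds are planted in blended loam soil and sand and treated preemergence, while seedlings in a peat moss/vermiculite medium receive postemergence sprays at 2 to 18 cm height. All plants stay in the greenhouse for 13 to 15 days before visual comparison with controls on a 0–100 scale.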

galium = test: Test C postemergence; type: in vivo, Galium aparine
Procedure, shortened: as §1

velvetleaf [2] = test: Test A postemergence; type: in vivo, Abutilon theophrasti; conditions: 0 to 100 scale where 0 is no effect and 100 is complete control
Procedure, shortened: (§2)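 Scoring: eye-based comparison with untreated controls, 0 for no effect through 100 for complete control, at about day 10. Treatments: directed soil spray preemergence; foliar spray postemergence on 2–10 cm plants at the one- to two-leaf stage. Medium: loam soil with sand.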

corn = test: Test C preemergence; type: in vivo, Zea mays
Procedure, shortened: as §1

wheat = test: Test A postemergence; type: in vivo, Triticum aestivum; conditions: 0 to 100 scale where 0 is no effect and 100 is complete control
Procedure, shortened: as §2

giant foxtail [3] = test: Test A preemergence; type: in vivo, Setaria faberii; conditions: 0 to 100 scale where 0 is no effect and 100 is complete control
Procedure, shortened: as §2

waterhemp = test: Test C preemergence; type: in vivo, Amaranthus rudis; conditions: preemergence
Procedure, shortened: as §1

barnyardgrass = test: Test A postemergence; type: in vivo, Echinochloa crus-galli; conditions: 0 to 100 scale where 0 is no effect and 100 is complete control
Procedure, shortened: as §2

yellow nutsedge = test: Test C postemergence; type: in vivo, Cyperus esculentus
Procedure, shortened: as §1

morningglory [4] = test: Test C postemergence; type: in vivo, Ipomoea coccinea
Procedure, shortened: as §1

velvetleaf [5] = test: Test C preemergence; type: in vivo, Abutilon theophrasti; conditions: preemergence
Procedure, shortened: as §1

morningglory [6] = test: Test C preemergence; type: in vivo, Ipomoea coccinea; conditions: preemergence
Procedure, shortened: as §1

ragweed = test: Test C postemergence; type: in vivo, Ambrosia elatior
Procedure, shortened: as §1

wheat, winter = test: Test C postemergence; type: in vivo, Triticum aestivum
Procedure, shortened: as §1

[7] = 16 g ai/ha, postemergence, 0 is no effect, 100 is complete control
[8] = 31 g ai/ha, postemergence, visual rating, scale 0 to 100 (0 no effect, 100 complete control), 13 to 15 days
[9] = 125 g ai/ha, postemergence, visual rating, scale 0 to 100 (0 no effect, 100 complete control)
[10] = Postemergence, 62 g ai/ha, scale 0 to 100 (0 no effect, 100 complete control)
[11] = 16 g ai/ha, scale 0 to 100 (0 no effect, 100 complete control)
[12] = 62 g ai/ha, scale 0 (no effect) to 100 (complete control)
[13] = 125 g ai/ha, scale 0 (no effect) to 100 (complete control)

## FC(F)(F)c1cnn(-c2c(Cl)cccc2Oc2ncc(Cl)cn2)c1 [Compound 167]
sedge, umbrella
  Plant response rating, Sedge, Umbrella: 98
Giant foxtail [1]; [7]
  Plant response rating (0 to 100), Foxtail, Giant: 10
Giant foxtail [1]; [8]
  Foxtail, Giant plant response rating: 10
Giant foxtail [1]; [9]
  Plant response rating, Foxtail, Giant: 30
Giant foxtail [1]; [10]
  Plant response rating, Foxtail, Giant: 10
galium; [7]
  Plant response rating (0 to 100), Galium: 70
galium; [8]
  Galium plant response rating: 70
galium; [9]
  Plant response rating, Galium: 90
galium; [10]
  Plant response rating, Galium: 70
Velvetleaf [2]; 125 g ai/ha
  Velvetleaf plant response rating: 100
Velvetleaf [2]; 500 g ai/ha
  Plant response rating, Velvetleaf: 100
corn; 16 g ai/ha, preemergence, scale 0 to 100 (0 no effect, 100 complete control)
  Corn plant response rating: 0
corn; 62 g ai/ha, preemergence, scale 0 (no effect) to 100 (complete control)
  Corn plant response rating: 25
corn; 125 g ai/ha, preemergence, scale 0 (no effect) to 100 (complete control)
  Corn plant response rating: 60
corn; Preemergence, 31 g ai/ha, scale 0 to 100, 0 no effect, 100 complete control
  Plant response rating, Corn: 5
wheat; 125 g ai/ha
  Wheat plant response rating: 20
wheat; 500 g ai/ha
  Plant response rating, Wheat: 60
Giant foxtail [3]; 125 g ai/ha
  Plant response rating, Foxtail, Giant: 100
Giant foxtail [3]; 500 g ai/ha
  Foxtail, Giant plant response rating: 100
waterhemp; [11]
  Waterhemp plant response rating: 100
waterhemp; [12]
  Waterhemp plant response rating: 100
waterhemp; [13]
  Waterhemp plant response rating: 100
barnyardgrass; 125 g ai/ha
  Barnyardgrass plant response rating: 70
barnyardgrass; 500 g ai/ha
  Plant response rating, Barnyardgrass: 100
Yellow nutsedge; [7]
  Plant response rating (0 to 100), Nutsedge, Yellow: 0
Yellow nutsedge; [8]
  Nutsedge, Yellow plant response rating: 0
Yellow nutsedge; [9]
  Plant response rating, Nutsedge, Yellow: 20
Yellow nutsedge; [10]
  Plant response rating, Nutsedge, Yellow: 5
Morningglory [4]; [7]
  Plant response rating (0 to 100), Morningglory: 80
Morningglory [4]; [8]
  Morningglory plant response rating: 60
Morningglory [4]; [9]
  Plant response rating, Morningglory: 90
Morningglory [4]; [10]
  Plant response rating, Morningglory: 98
Velvetleaf [5]; [11]
  Velvetleaf plant response rating: 45
Velvetleaf [5]; [12]
  Velvetleaf plant response rating: 100
Velvetleaf [5]; [13]
  Velvetleaf plant response rating: 100
Morningglory [6]; [11]
  Morningglory plant response rating: 30
Morningglory [6]; [12]
  Morningglory plant response rating: 50
Morningglory [6]; [13]
  Morningglory plant response rating: 100
ragweed; [7]
  Plant response rating (0 to 100), Ragweed: 10
ragweed; [8]
  Ragweed plant response rating: 10
ragweed; [9]
  Plant response rating, Ragweed: 55
ragweed; [10]
  Plant response rating, Ragweed: 30
wheat, winter; [7]
  Plant response rating (0 to 100), Wheat: 0
wheat, winter; [8]
  Wheat plant response rating: 0
wheat, winter; [9]
  Plant response rating, Wheat: 5
wheat, winter; [10]
  Plant response rating, Wheat: 5

## FC(F)(F)COc1cnn(-c2ccccc2Oc2ncc(Cl)cn2)c1 [Compound 138, 5-chloro-2-[2-[4-(2,2,2-trifluoroethoxy)-1H-pyrazol-1-yl]phenoxy]pyrimidine]
sedge, umbrella; Cyperus difformis, read-out: Plant response rating, Sedge, Umbrella
  pest or weed control at 250 g/ha: 75%
Giant foxtail [1]; Setaria faberi, post-emergence, 16 g ai/ha, postemergence, 0 is no effect, 100 is complete control, read-out: Plant response rating (0 to 100), Foxtail, Giant
  pest or weed control at 16 g/ha: 5%
Giant foxtail [1]; Setaria faberi, post-emergence, 125 g ai/ha, postemergence, visual rating, scale 0 to 100 (0 no effect, 100 complete control), read-out: Plant response rating, Foxtail, Giant
  pest or weed control at 125 g/ha: 50%
Giant foxtail [1]; Setaria faberi, post-emergence, Postemergence, 62 g ai/ha, scale 0 to 100 (0 no effect, 100 complete control), read-out: Plant response rating, Foxtail, Giant
  pest or weed control at 62 g/ha: 10%
galium; Galium, post-emergence, 16 g ai/ha, postemergence, 0 is no effect, 100 is complete control, read-out: Plant response rating (0 to 100), Galium
  pest or weed control at 16 g/ha: 50%
galium; Galium, post-emergence, 125 g ai/ha, postemergence, visual rating, scale 0 to 100 (0 no effect, 100 complete control), read-out: Plant response rating, Galium
  pest or weed control at 125 g/ha: 85%
galium; Galium, post-emergence, Postemergence, 62 g ai/ha, scale 0 to 100 (0 no effect, 100 complete control), read-out: Plant response rating, Galium
  pest or weed control at 62 g/ha: 65%
corn; Zea mays, pre-emergence, 16 g ai/ha, preemergence, scale 0 to 100 (0 no effect, 100 complete control), read-out: Corn plant response rating
  plant injury at 16 g/ha: 0%
corn; Zea mays, pre-emergence, 62 g ai/ha, preemergence, scale 0 (no effect) to 100 (complete control), read-out: Corn plant response rating
  plant injury at 62 g/ha: 0%
corn; Zea mays, pre-emergence, 125 g ai/ha, preemergence, scale 0 (no effect) to 100 (complete control), read-out: Corn plant response rating
  plant injury at 125 g/ha: 25%
corn; Zea mays, pre-emergence, Preemergence, 31 g ai/ha, scale 0 to 100, 0 no effect, 100 complete control
  Corn plant response rating (crop injury, 0 = no effect, 100 = complete kill) at 31 g/ha: 0%
wheat; Triticum aestivum, post-emergence, 240 h, 125 g ai/ha, read-out: Wheat plant response rating
  plant injury at 125 g/ha: 50%
wheat; Triticum aestivum, post-emergence, 240 h, 500 g ai/ha, read-out: Plant response rating, Wheat
  plant injury at 500 g/ha: 90%
Giant foxtail [3]; Setaria faberi, pre-emergence, 240 h, 125 g ai/ha, read-out: Plant response rating, Foxtail, Giant
  pest or weed control at 125 g/ha: 90%
Giant foxtail [3]; Setaria faberi, pre-emergence, 240 h, 500 g ai/ha, read-out: Foxtail, Giant plant response rating
  pest or weed control at 500 g/ha: 100%
waterhemp; Amaranthus tuberculatus, pre-emergence, 16 g ai/ha, scale 0 to 100 (0 no effect, 100 complete control), read-out: Waterhemp plant response rating
  pest or weed control at 16 g/ha: 100%
waterhemp; Amaranthus tuberculatus, pre-emergence, 62 g ai/ha, scale 0 (no effect) to 100 (complete control), read-out: Waterhemp plant response rating
  pest or weed control at 62 g/ha: 100%
waterhemp; Amaranthus tuberculatus, pre-emergence, 125 g ai/ha, scale 0 (no effect) to 100 (complete control), read-out: Waterhemp plant response rating
  pest or weed control at 125 g/ha: 100%
barnyardgrass; Echinochloa crus-galli, post-emergence, 240 h, 125 g ai/ha, read-out: Barnyardgrass plant response rating
  pest or weed control at 125 g/ha: 80%
barnyardgrass; Echinochloa crus-galli, post-emergence, 240 h, 500 g ai/ha, read-out: Plant response rating, Barnyardgrass
  pest or weed control at 500 g/ha: 100%
Yellow nutsedge; Cyperus, post-emergence, 16 g ai/ha, postemergence, 0 is no effect, 100 is complete control, read-out: Plant response rating (0 to 100), Nutsedge, Yellow
  pest or weed control at 16 g/ha: 0%
Yellow nutsedge; Cyperus, post-emergence, 125 g ai/ha, postemergence, visual rating, scale 0 to 100 (0 no effect, 100 complete control), read-out: Plant response rating, Nutsedge, Yellow
  pest or weed control at 125 g/ha: 10%
Yellow nutsedge; Cyperus, post-emergence, Postemergence, 62 g ai/ha, scale 0 to 100 (0 no effect, 100 complete control), read-out: Plant response rating, Nutsedge, Yellow
  pest or weed control at 62 g/ha: 5%
Morningglory [4]; Ipomoea, post-emergence, 16 g ai/ha, postemergence, 0 is no effect, 100 is complete control, read-out: Plant response rating (0 to 100), Morningglory
  pest or weed control at 16 g/ha: 65%
Morningglory [4]; Ipomoea, post-emergence, 125 g ai/ha, postemergence, visual rating, scale 0 to 100 (0 no effect, 100 complete control), read-out: Plant response rating, Morningglory
  pest or weed control at 125 g/ha: 85%
Morningglory [4]; Ipomoea, post-emergence, Postemergence, 62 g ai/ha, scale 0 to 100 (0 no effect, 100 complete control), read-out: Plant response rating, Morningglory
  pest or weed control at 62 g/ha: 65%
Velvetleaf [5]; Abutilon theophrasti, pre-emergence, 16 g ai/ha, scale 0 to 100 (0 no effect, 100 complete control), read-out: Velvetleaf plant response rating
  pest or weed control at 16 g/ha: 60%
Velvetleaf [5]; Abutilon theophrasti, pre-emergence, 62 g ai/ha, scale 0 (no effect) to 100 (complete control), read-out: Velvetleaf plant response rating
  pest or weed control at 62 g/ha: 98%
Velvetleaf [5]; Abutilon theophrasti, pre-emergence, 125 g ai/ha, scale 0 (no effect) to 100 (complete control), read-out: Velvetleaf plant response rating
  pest or weed control at 125 g/ha: 100%
Morningglory [6]; Ipomoea, pre-emergence, 16 g ai/ha, scale 0 to 100 (0 no effect, 100 complete control), read-out: Morningglory plant response rating
  pest or weed control at 16 g/ha: 0%
Morningglory [6]; Ipomoea, pre-emergence, 62 g ai/ha, scale 0 (no effect) to 100 (complete control), read-out: Morningglory plant response rating
  pest or weed control at 62 g/ha: 10%
Morningglory [6]; Ipomoea, pre-emergence, 125 g ai/ha, scale 0 (no effect) to 100 (complete control), read-out: Morningglory plant response rating
  pest or weed control at 125 g/ha: 35%
ragweed; Ambrosia artemisiifolia, post-emergence, 16 g ai/ha, postemergence, 0 is no effect, 100 is complete control, read-out: Plant response rating (0 to 100), Ragweed
  pest or weed control at 16 g/ha: 40%
ragweed; Ambrosia artemisiifolia, post-emergence, 125 g ai/ha, postemergence, visual rating, scale 0 to 100 (0 no effect, 100 complete control), read-out: Plant response rating, Ragweed
  pest or weed control at 125 g/ha: 45%
ragweed; Ambrosia artemisiifolia, post-emergence, Postemergence, 62 g ai/ha, scale 0 to 100 (0 no effect, 100 complete control), read-out: Plant response rating, Ragweed
  pest or weed control at 62 g/ha: 40%
wheat, winter; Triticum aestivum, post-emergence, 16 g ai/ha, postemergence, 0 is no effect, 100 is complete control, read-out: Plant response rating (0 to 100), Wheat
  plant injury at 16 g/ha: 0%
wheat, winter; Triticum aestivum, post-emergence, 125 g ai/ha, postemergence, visual rating, scale 0 to 100 (0 no effect, 100 complete control), read-out: Plant response rating, Wheat
  plant injury at 125 g/ha: 5%
wheat, winter; Triticum aestivum, post-emergence, Postemergence, 62 g ai/ha, scale 0 to 100 (0 no effect, 100 complete control), read-out: Plant response rating, Wheat
  plant injury at 62 g/ha: 0%
